Values of other authors, collected in patent publication US20140308726A1, “Controlling Bacterial Biofilms in Ethanol Production” (ANITOX CORPORATION, priority 2011, published 2014).
Where two headings read alike, the source gives them in different places.

Experiments:
Lactobacillus [1] = settings: 600 mg/L
yeast = settings: 8 g/L; beet molasses batch fermentation
Lactobacillus [2] = settings: 8.6 ppm Nisin combined with 0.1% Tween 20

Molecule: O=C(O)CCC(=O)O [Succinic acid]
- Reduction of Lactobacillus concentrations (Lactobacillus [1]; by itself): 78%
- Reduction of Lactobacillus concentrations (Lactobacillus [1]; in the presence of ethanol): up to 96%

Molecule: CC(O)C(=O)O (centres unmarked) [lactic acid]
- Reduction of alcohol production rate (yeast): 80%
- Reduction of yeast viability (yeast): 95%

Molecule: Nisin
- Delay of the lag phase of lactobacillus (Lactobacillus [2]): 12 h
